Measured values from patent US20170367390A1, “USE OF ELLAGIC ACID DIHYDRATE IN FOOD PRODUCTS AND NUTRACEUTICALS” (HALO LIFE SCIENCE, LLC, priority 2014, published 2017).
“Also recorded” adds a separate entry of the source.

Tests used:
[1] = Weight loss and blood glucose in female SWV mice with STZ induced diabetes, 30 days gavage; type: in vivo, mouse; conditions: thirty days
Description: Weight loss and blood glucose in diabetes induced mice treated with ellagic acid was determined and weight loss and blood glucose in mice treated with ellagic acid dihydrate may be determined by the following procedures. Induction of Diabetes: Diabetes is induced in mice by intraperitoneal injection with Streptozotocin (STZ 40 mg/kg) daily for five days. The mice are considered hyperglycemic when the glucose level of each dam is above 200 mg/dL. The mice are fasted for 4 hours before STZ injection and glucose measurement. Treatment: The mice are treated daily for thirty days with ellagic acid or control in the form of a supplemental pill homogenized and suspended in 25% water solution of Cremophor EL. The mice are treated for one month via gavage using the human equivalent dose of 122.4 mg pill/kg of subject (40.6 mg ellagic acid/kg of the subject), the human equivalent does of 40.6 mg ellagic acid/kg of the subject using 98% pure ellagic acid, or control vehicle (25% water solution of Cremophor EL). The human equivalent dose is calculated as described in Example 8. Treatments would start two weeks after the last STZ injection in which hyperglycemia is confirmed in the diabetic mice. The mice would be weighed daily and glucose levels would be measured in fasted animals every five days.

Activity level in mice = type: in vivo, mouse; conditions: mice, Applicant's observation
From the text: Activity levels in mice treated with ellagic acid dihydrate may be quantified by several procedures, such as those outlined in Turri, M. et al.; QTL Analysis Identifies Multiple Behavioral Dimensions in Ethological Tests of Anxiety in Laboratory Mice; Current Biology; 2001; 11(10): 725-734. Two examples of procedures taught therein follows. Gross Locomotor Activity in Home Cage: Mice are caged singly several days prior to home cage activity monitoring and subsequent testing. Activity in home cages are measured during the first 2 hours of the dark cycle on two consecutive days. Two infrared photo emitter-detector pairs, located outside the clear plastic home cage that divide the cage into three equal areas, are used to record gross locomotor activity on the floor of the home cage as the animal breaks the photo beams. The beam-break activity score consists of the square root of the number of beam breaks for each detector summed across the two test days. Magnitude of Activity in Home Cage: Mice are caged singly several days prior to home cage activity monitoring and subsequent testing. Activity in home cages are measured during the first 2 hours of the dark cycle on two consecutive days. An infrared motion detector located above the top of the home cage is employed to converts all motion sensed within the home cage into arbitrary units, based on the magnitude of activity detected.

MEF cells [2] = test: Glucose uptake, 2-NBDG labeling, high-content imaging (Operetta), MEFs; type: cell-based, mouse
Description: (§1) Increased glucose uptake was indicated as increasing signal of 2-NBDG ([…]) in cells. Glucose uptake assays were carried out in a final incubation volume of 50 μl consisting of, 2-NBDG), (100 μM) in 1× Phosphate Buffered Saline w/Ca+, Mg+ (PBS++). The same buffer was used for washing cells. Insulin was used as a positive control. All testing compounds were prepared in 10% DMSO and diluted 1:100 for a final concentration of 0.1% DMSO (vehicle). Cells were culture to 70-90% confluence and then washed twice with PBS++. Cells were incubated for 30 minutes at 37° C. in PBS++. Nuclear stain, HCS CellMask stain (blue, Invitrogen), and/or testing compounds (ellagic acid dihydrate, insulin, or vehicle) were added. Cells were incubated for 30 min at 37° C. Cells were washed twice with PBS++ and incubated with 2-NBDG for 10 minutes. Cells were washed thrice with PBS++ and then imaged in PBS++. Alternatively, the final PBS wash was removed and cells were incubated with Accutase (Invitrogen) for 10 min at 37° C., neutralized with 10% FBS in 1×PBS, and analyzed by flow cytometry. An additional experiment was performed to measure glucose uptake in C2Cl2 cells exposed to metformin, insulin and ellagic acid dihydrate 2 (batch 2). FIG. 5C. Glucose uptake in ellagic acid dihydrate treated cell culture was measured and compared to glucose uptake under insulin or ellagic acid treatment. […] Flow cytometry results were run in triplicate with 1000 cells per batch.

p44/42 MAPK = test: p44/42 MAPK:Phos p44/42 MAPK ratio by immunocytochemistry, high-content imaging in C2C12; type: cell-based, mouse; conditions: serum starved C2C12, 30 minutes, 0.04 nM
Description: Stimulation of AKT pathways and MAPK pathways in ellagic acid dihydrate, metformin, and insulin treated cell cultures was performed. Insulin stimulates glucose uptake into cells by increasing GLUT4 activation, and AKT, specifically phos-AKT, signaling alters GLUT4 translocation. […] Cellular assays were performed using mouse myoblast C2C12 cells. Relative protein levels of AKT:phos AKT and p44/42 MAPK:phos p44/42 MAPK were determined.
Serum starved cells (1 hr) were treated for 30 minutes with each of the tested compounds. Ratios of phosphorylated to non-phosphorylated proteins were determined using immunocytochemistry labeling (anti-AKT, anti-Phos AKT; or anti-p44/42 MAPK, anti-Phos p44/42 MAPK) on a high-content imaging system (Operetta, Perkin Elmer) using the fluorescent signal of anti-rabbit Alexa 647. Increased phosphorylation is indicated as decrease in signal of AKT:Phos AKT ratio (log 2 scale) and p44/42 MAPK:Phos p44/42 MAPK ratio (log 2 scale) relative to vehicle treated cells.

AKT = test: AKT:Phos AKT ratio by immunocytochemistry, high-content imaging in C2C12; type: cell-based, mouse; conditions: serum starved C2C12, 30 minutes; 4 nM-4 μM for insulin and ellagic acid dihydrate
Description: Stimulation of AKT pathways and MAPK pathways in ellagic acid dihydrate, metformin, and insulin treated cell cultures was performed. Insulin stimulates glucose uptake into cells by increasing GLUT4 activation, and AKT, specifically phos-AKT, signaling alters GLUT4 translocation. […] Cellular assays were performed using mouse myoblast C2C12 cells. […] Serum starved cells (1 hr) were treated for 30 minutes with each of the tested compounds.

[3] = test system: mouse myoblast C2C12 cells; test: Glucose uptake, 2-NBDG labeling, flow cytometry, C2C12; type: cell-based
Description: Cellular assays were performed using mouse myoblast C2C12 cells and MEF cells. […] Increased glucose uptake was indicated as increasing signal of 2-NBDG ([…]) in cells. Glucose uptake assays were carried out in a final incubation volume of 50 μl consisting of, 2-NBDG), (100 μM) in 1× Phosphate Buffered Saline w/Ca+, Mg+ (PBS++). The same buffer was used for washing cells. Insulin was used as a positive control. All testing compounds were prepared in 10% DMSO and diluted 1:100 for a final concentration of 0.1% DMSO (vehicle). Cells were culture to 70-90% confluence and then washed twice with PBS++. Cells were incubated for 30 minutes at 37° C. in PBS++. Nuclear stain, HCS CellMask stain (blue, Invitrogen), and/or testing compounds (ellagic acid dihydrate, insulin, or vehicle) were added. Cells were incubated for 30 min at 37° C. Cells were washed twice with PBS++ and incubated with 2-NBDG for 10 minutes. Cells were washed thrice with PBS++ and then imaged in PBS++. Alternatively, the final PBS wash was removed and cells were incubated with Accutase (Invitrogen) for 10 min at 37° C., neutralized with 10% FBS in 1×PBS, and analyzed by flow cytometry. An additional experiment was performed to measure glucose uptake in C2Cl2 cells exposed to metformin, insulin and ellagic acid dihydrate 2 (batch 2). FIG. 5C.

MEF cells [4] = test: Glucose uptake, 2-NBDG labeling, flow cytometry, MEFs; type: cell-based, mouse; conditions: flow cytometry
Description: as §1, with “Cellular assays were performed using mouse myoblast C2C12 cells and MEF cells. […] Increased” for “Increased”

GLUT4-GFP = test: Localization of glucose transporter GLUT4-GFP, time-lapse confocal microscopy in C2C12; type: cell-based, mouse; conditions: C2C12, 4000 nM exposure
Description: Induction of glucose transporter, GLUT-4, in ellagic acid dihydrate treated cell cultures was studied. Cellular assays were performed using mouse myoblast C2C12 cells. The cells were infected with a fusion glucose transporter 4 green fluorescent protein (GLUT4-GFP). This protein allows the visualization of GLUT4 by imaging the GFP under fluorescent time-lapse microscopy. Frames were compiled to produce time-lapse images of cellular changes with no treatment or treatment with insulin. The localization of glucose transporter (GLUT4-GFP) was performed in final incubation volume of 505 μL, consisting of 500 μl of Hank's Buffer (Invitrogen) and 5 μl of tested compounds. Insulin was used as positive controls and vehicle (0.1% DMSO) as the negative control. All test compounds were prepared in 10% DMSO and diluted 1:100 for a final concentration of 0.1% DMSO (vehicle). The cells were rinsed in Hank's Buffer thrice and then incubated in Hank's Buffer at 37° C. for one hour. The test compounds were added (ellagic acid dihydrate, insulin, or vehicle) and the cells were imaged using laser-confocal microscopy (Leica TCS SP5 X) with FITC fluorescent filters to determine changes in GLUT4-GFP localization. Time-lapse images (TIF) were collected and post-processed using Image-J (NIH) for video construction.

O=c1oc2c(O)c(O)cc3c(=O)oc4c(O)c(O)cc1c4c23 [ellagic acid]
mean glucose level values, treated versus control mice ([1]; STZ diabetic mice): no significant differences between the mean glucose level values
average loss of body weight ([1]; female SWV mice with STZ induced diabetes, human equivalent dose (40.6 mg ellagic acid/kg), gavage daily, control lost 2.2%): 11.7%
activity levels (Activity level in mice): increased activity levels
dose effect for increasing glucose uptake (MEF cells [2]): little to no glucose uptake per unit dose; also recorded: no such dose effect was seen

CN(C)C(=N)N=C(N)N [metformin]
p44/42 MAPK:Phos p44/42 MAPK ratio relative to vehicle (p44/42 MAPK): increased the ratio of p44/42 MAPK
AKT:Phos AKT ratio (log 2 scale) relative to vehicle treated cells (AKT): increase in AKT relative to phosphorylation of AKT

insulin [reference compound]
dose effect for increasing glucose uptake ([3]; C2C12, flow cytometry, 2-NBDG): dose effect for increasing glucose uptake
glucose uptake (2-NBDG signal) relative to vehicle ([3]; C2C12, flow cytometry, vehicle 0.1% DMSO): significant increase in glucose uptake relative to the vehicle
increase in glucose uptake in myoblasts relative to fibroblasts ([3]; C2C12 myoblasts versus MEF fibroblasts): ~4 ×
p44/42 MAPK:Phos p44/42 MAPK ratio relative to vehicle (p44/42 MAPK; 400 nM): increase in p44/42 MAPK
increased glucose uptake (percent change relative to vehicle) (MEF cells [4]; 400 nM exposure, fibroblasts (MEFs)): 32%
dose effect for increasing glucose uptake (MEF cells [4]; MEFs, 2-NBDG): dose effect for increasing glucose uptake
glucose uptake (2-NBDG signal) relative to vehicle (MEF cells [4]; MEFs, vehicle 0.1% DMSO): significant increase in glucose uptake relative to the vehicle
dose effect for increasing glucose uptake (MEF cells [2]): dose effect for increasing glucose uptake
glucose uptake (2-NBDG signal) (MEF cells [2]; versus vehicle (Neg, 0.1% DMSO)): showed an increase in glucose uptake
AKT:Phos AKT ratio (log 2 scale) relative to vehicle treated cells (AKT): −0.5
GLUT4-GFP localization (GLUT4-GFP): decrease in GLUT4-GFP around the cell nucleus and a parallel increase of movement at the membrane
ruffling of filopodia at the surface of the cell (GLUT4-GFP): rapid production of numerous projections (ruffling of filopodia) at the surface of the cell
